The target in test [1] is DarmCSP2 (Dendroctonus armandi, UniProt A0A3S7PYZ0). The test is described as follows: Fluorescence competitive binding assay (1-NPN displacement). As to conditions: for IC50: 2 μM DarmCSP2 and 2 μM 1-NPN titrated with ligand 2–16 μM, three independent measurements; for Ki: calculated from IC50: KD = [IC50]/(1+[1-NPN]/K1-NPN). On the procedure:
A Hitachi F-4500 fluorescence spectrophotometer was used to measure emission fluorescence spectra, in a right-angle configuration with a 1 cm light-path quartz cuvette. The slit width was […] for both excitation and emission. DarmCSPs were dissolved to 2 μM in 50 mM Tris-HCl buffer (pH = 7.4), whereas fluorescent probe N-phenyl-1-naphthylamine (1-NPN) and all semiochemicals were dissolved in methanol with a 1 mM stock solution. […] Excitation of 1-NPN occurred at 337 nm, with the emission spectra recorded from 360 to 500 nm. Corresponding fluorescence intensity values were plotted against free 1-NPN concentration to determine DarmCSP binding constants. Bound 1-NPN concentrations were assessed based on fluorescence intensity, assuming DarmCSPs were 100% active and protein: ligand = 1:1 at saturation. The dissociation-constants curve was linearized with Scatchard plots in Prism 6.0 (GraphPad Software, CA, USA).
Ligand affinity was measured with competitive binding assays. Fourteen compounds were selected based on previous reports (Zhang et al., [2010]; Xie and Lv, [2012]; Chen et al., [2015]; Zhao et al., [2017a],[b]), including 10 host volatiles and four D. armandi pheromones (Table 2). A mixture of 2 μM DarmCSP and 2 μM 1-NPN was titrated with each ligand to final concentrations of 2–16 μM. Corresponding fluorescence intensities were recorded from three independent measurements. Dissociation constants of competitive ligands were calculated according to IC50 values, using the equation: KD = [IC50]/(1+[1-NPN]/K1−NPN), where IC50 is competitive-ligand concentration at half the initial fluorescence of 1-NPN, 1-NPN is the concentration of free 1-NPN, and K1−NPN is the dissociation constant of DarmCSP with 1-NPN.

In test [2] the test system is D. armandi antennae. Nature of the test: Electroantennogram (EAG) of antennae after RNAi of DarmCSP2. Set-up: species or system Dendroctonus armandi. As to conditions: 48 h post-injection; semiochemical 10 μg/μL in hexane; compared with non-injected and water-injected controls; P < 0.05. On the procedure: Freshly and synchronously emerged adults were anesthetized on glass petri dishes placed for 30 min in an ice bath, before injection with 0.2 μL dsCSP2 into the hemocoel at the suture under the hindleg. Injections used Hamilton Microliter™ syringes (700 series, RN) with 32G sharp-point needles (Hamilton, Switzerland). Controls were either injected with 0.2 μL DEPC-treated water or not injected. Subjects were then transferred onto wet filter paper placed in clear glass petri dishes for continuous culture (at 20 ± 1°C, 50% humidity). Three males and three females were removed at different time intervals (12, 24, and 48 h) from each treatment group for storage at −80°C until qRT-PCR analysis. Three replicates were performed per treatment group (non-injected, water-injected, dsCSP2-injected). RNA isolation, cDNA synthesis, and qRT-PCR procedure followed methods described above (“RNA isolation and cDNA synthesis” and “Expression patterns of CSP genes across different life stages and tissues”).
Electroantennograms (EAG) were used to detect RNAi efficiency of dsCSP2 and determine DarmCSP2 function in binding semiochemicals. Methods were modified from a previous study (Zhang et al., [2010]). Subject beetles were chosen based on post-RNAi qRT-PCR and anesthetized in an ice bath. Antennae were carefully excised at their base with a scalpel and immediately connected between two electrode holders using Spectra 360 electrode gel.
Semiochemicals were selected based on the results of fluorescence binding assays and dissolved to 10 μg/μL in hexane. Hexane alone acted as a blank control and 1 μg/μL 1-hexanol was used as a standard to normalize all EAG recordings (Zhang et al., [2010]). Semiochemical solutions (20 μL) were loaded onto filter paper strips (5 × 30 mm) and then transferred into a Pasteur pipette. The pipette tip was then inserted into a small hole in the wall of a steel tube (15 mm diameter × 15 cm length). The tube was connected to an air stimulus controller (CS-05b Syntech, the Netherlands) for constant humidified airflow delivery at a rate of 40 mL/min. The open end of the tube was positioned 1 cm before an antenna affixed between two electrode holders.
To stimulate the antenna, semiochemical-containing air was introduced through the pipette into the main air flow at a rate of 20 mL/min for 0.2 s. Each stimulus was separated by at least a 1 min interval to ensure complete antenna recovery. Signals were recorded using an IDAC-2 unit plus amplifier and Syntech EAG 2000 (Syntech, Netherlands). The control and standard were tested before and after every semiochemical solution. Antennae from12 individuals (six males and six females) were tested, with three replicates per antenna. To calculate EAG values, mean responses of the solvent control before and after exposure were subtracted from mean sample responses, then converted to a percentage of the accompanying standard (Zhang et al., [2010]).

For test [3], the system named is DarmCSP3. The test is described as follows: Fluorescence binding assay of 1-NPN with DarmCSP3. Set-up: species or system Dendroctonus armandi. Particulars: DarmCSP3, 2 μM protein titrated with 1-NPN. An excerpt: (§1) To better characterize DarmCSP function, three antennae-preferential genes (DarmCSP 1–3) were chosen for expression in bacteria. Signal peptides were removed to generate properly folded proteins. PCR products encoding mature proteins were amplified using gene-specific primers (Table S1), cloned into pGEM-T easy vectors (Promega, Madison, USA), then excised and cloned into the bacterial expression vector pET32a(+) (Novagen, Madison, WI), between BamHI and XhoI restriction sites. Successful cloning was verified through PCR and sequencing. Plasmids containing the correct insert were extracted and transformed into E. coli BL21 (DE3) competent cells. Positive clones were incubated at 37°C until absorbance = 0.6 at OD 600, and protein expression was induced with IPTG (isopropyl-β-D-1-thiogalactopyranoside) treatment (28°C for 6 h) to a final concentration of 0.5 mM. […]
(§2) Recombinant proteins were purified with N-termini His tagged from the supernatant using a Ni-NTA-Sefinose Column (Sangon, Shanghai, China), and placed in a buffer (25 mM Tris-HCl, 50 mM NaCl, and 2 mM CaCl2, pH 7.6) for dialysis. To avoid confounding effects in fluorescence binding assays, His-tags were excised using Recombinant Enterokinase with His-tag (rEK) (Sangong, Shanghai, China), and the resultant complex was cleared through a Ni-NTA-Sefinose Column. […]

The subject of test [4] is DarmCSP1. The test is described as follows: Fluorescence binding assay of 1-NPN with DarmCSP1. Also noted: species or system Dendroctonus armandi. Particulars: DarmCSP1, 2 μM protein titrated with 1-NPN.
Source text: as §1, §2

DarmCSP2, sequence (A0A3S7PYZ0 entry or part of it): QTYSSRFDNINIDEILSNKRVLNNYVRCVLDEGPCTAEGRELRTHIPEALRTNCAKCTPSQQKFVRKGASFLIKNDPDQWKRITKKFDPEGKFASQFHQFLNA

`CC[C@@H]1O[C@]2(C)CCC[C@H]1O2` (racemic) [(±)-exo-Brevicomin]: in test [1], the IC50 is 14.48 ± 0.11 µM and the inhibition constant (Ki) is 9.34 ± 0.07 µM.

For the molecule `CC1=C[C@H](O)[C@@H]2C[C@H]1C2(C)C` (relative stereo) [(-)-trans-Verbenol], in test [1], the half-maximal inhibitory concentration (IC50) was 4.33 ± 0.1 µM and the Ki was 2.8 ± 0.07 µM.

Regarding `CC1=CCC2C(C1)C2(C)C` (single isomer, unassigned; (+)) [(+)-3-Carene], in test [1], the IC50 was found to be 3.05 ± 0.71 µM and the inhibition constant (Ki) was 1.97 ± 0.46 µM. Besides, the “Effect of dsCSP2 injection on antennae EAG activity in response to the semiochemical” value (from here on “Effect of dsCSP2 injection”) in test [2] was “significantly reduced”.

For the molecule `c1ccc(Nc2cccc3ccccc23)cc1` [1-NPN, N-phenyl-1-naphthylamine], the “Affinity to 1-NPN” value in test [3] and in test [4] was “no obvious affinity” in each case.

As to `C=C1[C@H]2CC[C@H](C2)C1(C)C` [(+)-Camphene], in test [2], the “Effect of dsCSP2 injection” value is given as “significantly reduced”.

For `C=C(C)[C@H]1CC=C(C)CC1` [(R)-(+)-Limonene], in test [1], the half-inhibitory concentration (IC50) amounted to 6.36 ± 0.25 µM and the Ki was 4.1 ± 0.16 µM.

As for `CC1=CC[C@H](C(C)C)C=C1` [(R)-(-)-a-Phellandrene], in test [1], the concentration for half-maximal inhibition (IC50) was found to be 8.77 ± 0.24 µM and the Ki is 5.66 ± 0.16 µM.

For `CC1=CCC2CC1C2(C)C` (stereo not drawn) [(–)-α-Pinene], in test [1], the 50% inhibitory concentration (IC50) is 2.53 ± 0.11 µM and the inhibition constant (Ki) was 1.64 ± 0.08 µM.

In the case of `C=CC(=C)CCC=C(C)C` [Myrcene], the “Effect of dsCSP2 injection” value in test [2] is “significantly reduced”.

As to (+)-α-Pinene, in test [1], the half-maximal inhibitory concentration (IC50) amounted to 3.6 ± 0.03 µM and the inhibition constant (Ki) is 2.33 ± 0.02 µM. In test [2], the “Effect of dsCSP2 injection” value is “significantly reduced”.

Consider (+)-β-Pinene, for which, in test [1], the half-maximal inhibitory concentration (IC50) amounted to 5.9 ± 1.31 µM and the inhibitory constant (Ki) is 3.8 ± 0.84 µM. Moreover, the “Effect of dsCSP2 injection” value in test [2] is listed as “significantly reduced”.

Take (S)-(-)-Limonene: in test [1], the IC50 was 5.51 ± 0.42 µM and the inhibitory constant (Ki) was 3.41 ± 0.04 µM.

For (±)-Frontalin, in test [1], the IC50 worked out at 26.2 ± 1.94 µM and the Ki was 16.9 ± 1.26 µM.

Regarding (–)-β-Pinene, in test [1], the half-maximal inhibitory concentration (IC50) is 5.93 ± 0.17 µM and the inhibition constant Ki is 3.83 ± 0.11 µM. In addition, the “Effect of dsCSP2 injection” value in test [2] is on record as “significantly reduced”.

Source of the values: publication PMC5881420, “Identification, Expression Patterns, and Functional Characterization of Chemosensory Proteins in Dendroctonus armandi (Coleoptera: Curculionidae: Scolytinae)” (Frontiers in Physiology, 2018).
